Measurements published in ChEMBL document CHEMBL5038589, “Design, Synthesis, and Structure-Activity Relationship of N-Aryl-N'-(thiophen-2-yl)thiourea Derivatives as Novel and Specific Human TLR1/2 Agonists for Potential Cancer Immunotherapy” (J Med Chem, 2021).
Activity calls are given as the source filed them. The rule behind the calls is not given here.

How the values were obtained:
[1] = system: THP-1; experiment: Agonist activity at TLR2/MyD88 in human THP-1 cells assessed as induction of TLR2/MyD88 complex formation at 20 uM incubated for 12 hrs by coimmunoprecipitation method; format: cell-based; conditions: filed as agonist
[2] = system: THP-1; experiment: Upregulation of MyD88 expression in human PMA-differentiated THP-1 cells assessed as induction of IKKalpha phosphorylation at 10 uM incubated for 2 hrs by Western blot analysis; format: functional, cell-based
[3] = Stability in mouse liver microsomes assessed as half life at 250 uM in presence of NADPH by HPLC-MS analysis; format: ADME
[4] = system: Macrophage; experiment: Induction of TNFalpha secretion in wild-type C57BL/6 mouse peritoneal macrophages at 0.01 to 10 uM incubated for 24 hrs by ELISA method; format: functional, cell-based; conditions: dose 0.01-10 µM
[5] = system: THP-1; experiment: Induction of IL-1beta secretion in human PMA-differentiated THP-1 cells incubated for 24 hrs by ELISA method; format: functional, cell-based; conditions: dose 0.01-10 µM
[6] = Selectivity index, ratio of CC50 for HEK-Blue TLR2 cells to EC50 for agonist activity at TLR2 in HEK-Blue TLR2 cells; format: functional
[7] = system: Natural killer cell; experiment: Immunostimulatory activity in human NK cells assessed as fold increase at 0.1 to 10 uM incubated for 48 hrs by flow cytometry analysis; format: functional; conditions: dose 0.1-10 µM
[8] = system: THP-1; experiment: Induction of TNFalpha secretion in human PMA-differentiated THP-1 cells incubated for 24 hrs by ELISA method; format: functional, cell-based; conditions: dose 0.01-10 µM
[9] = system: Macrophage; experiment: Induction of IL-6 secretion in wild-type C57BL/6 mouse peritoneal macrophages at 0.01 to 10 uM incubated for 24 hrs by ELISA method; format: functional, cell-based; conditions: dose 0.01-10 µM
[10] = molecular target: Toll-like receptor 6 (Homo sapiens) (UniProt Q9Y2C9); experiment: Agonist activity at TLR6 in HEK-Blue hTLR2 cells at 0.2 uM incubated for 24 hrs in presence of anti-hTLR6-IgA antibodies measured by Quanti-Blue based SEAP assay; format: cell-based
[11] = system: B-cell line; experiment: Immunostimulatory activity in mouse C57 spleen B cells in assessed as fold increase at 0.1 to 10 uM incubated for 48 hrs by flow cytometry analysis; format: functional, cell-based; conditions: dose 0.1-10 µM
[12] = system: HCT-116; experiment: Induction of apoptosis in human HCT-116 cells cocultured with PMA-differentiated THP-1 cells assessed as increase in annexin-V positive cells at 10 uM measured after 24 hrs by annexin V-FITC/PI staining based flow cytometry (reference value: 16.23%); format: functional
[13] = system: THP-1; experiment: Upregulation of MyD88 expression in human PMA-differentiated THP-1 cells assessed as induction of p65 phosphorylation at 10 uM incubated for 2 hrs by Western blot analysis; format: functional, cell-based
[14] = molecular target: Toll-like receptor 7 (Homo sapiens) (UniProt Q9NYK1); experiment: Agonist activity at TLR7 in HEK-Blue hTLR7 cells at 0.1 to 100 uM incubated for 24 hrs by Quanti-Blue based SEAP assay; format: cell-based; conditions: dose 0.1-100 µM
[15] = system: B cell; experiment: Immunostimulatory activity in human B cells assessed as fold increase at 0.1 to 10 uM incubated for 48 hrs by flow cytometry analysis; format: functional; conditions: dose 0.1-10 µM
[16] = molecular target: Nuclear factor NF-kappa-B complex (Homo sapiens) (UniProt Q00653+P19838+Q04206); experiment: Activation of NF-kappaB signalling in HEK-Blue hTLR2 cells at 10 uM in presence of triptolide; format: cell-based
[17] = molecular target: Toll-like receptor 1 (Homo sapiens) (UniProt Q15399); experiment: Agonist activity at TLR1 in HEK-Blue hTLR2 cells at 0.2 uM incubated for 24 hrs in presence of anti-hTLR1-IgG antibodies measured by Quanti-Blue based SEAP assay; format: cell-based; conditions: filed as agonist
[18] = system: RAW264.7; experiment: Induction of nitric oxide release in mouse RAW264.7 cells at 0.01 to 10 uM incubated for 24 hrs by Griess reagent based assay; format: functional, cell-based; conditions: dose 0.01-10 µM
[19] = Cytotoxicity against HEK-Blue TLR2 cells upto 100 uM incubated for 24 hrs by CCK-8 assay; format: toxicity, cell-based; conditions: human, hek-blue htlr2, 24 h
[20] = system: MCF7; experiment: Induction of apoptosis in human MCF7 cells cocultured with PMA-differentiated THP-1 cells assessed as late apoptotic cells at 10 uM measured after 24 hrs by annexin V-FITC/PI staining based flow cytometry (reference value: 5.41 %); format: functional

Chain of Nuclear factor NF-kappa-B complex (Homo sapiens) (P19838 whole entry, looked up): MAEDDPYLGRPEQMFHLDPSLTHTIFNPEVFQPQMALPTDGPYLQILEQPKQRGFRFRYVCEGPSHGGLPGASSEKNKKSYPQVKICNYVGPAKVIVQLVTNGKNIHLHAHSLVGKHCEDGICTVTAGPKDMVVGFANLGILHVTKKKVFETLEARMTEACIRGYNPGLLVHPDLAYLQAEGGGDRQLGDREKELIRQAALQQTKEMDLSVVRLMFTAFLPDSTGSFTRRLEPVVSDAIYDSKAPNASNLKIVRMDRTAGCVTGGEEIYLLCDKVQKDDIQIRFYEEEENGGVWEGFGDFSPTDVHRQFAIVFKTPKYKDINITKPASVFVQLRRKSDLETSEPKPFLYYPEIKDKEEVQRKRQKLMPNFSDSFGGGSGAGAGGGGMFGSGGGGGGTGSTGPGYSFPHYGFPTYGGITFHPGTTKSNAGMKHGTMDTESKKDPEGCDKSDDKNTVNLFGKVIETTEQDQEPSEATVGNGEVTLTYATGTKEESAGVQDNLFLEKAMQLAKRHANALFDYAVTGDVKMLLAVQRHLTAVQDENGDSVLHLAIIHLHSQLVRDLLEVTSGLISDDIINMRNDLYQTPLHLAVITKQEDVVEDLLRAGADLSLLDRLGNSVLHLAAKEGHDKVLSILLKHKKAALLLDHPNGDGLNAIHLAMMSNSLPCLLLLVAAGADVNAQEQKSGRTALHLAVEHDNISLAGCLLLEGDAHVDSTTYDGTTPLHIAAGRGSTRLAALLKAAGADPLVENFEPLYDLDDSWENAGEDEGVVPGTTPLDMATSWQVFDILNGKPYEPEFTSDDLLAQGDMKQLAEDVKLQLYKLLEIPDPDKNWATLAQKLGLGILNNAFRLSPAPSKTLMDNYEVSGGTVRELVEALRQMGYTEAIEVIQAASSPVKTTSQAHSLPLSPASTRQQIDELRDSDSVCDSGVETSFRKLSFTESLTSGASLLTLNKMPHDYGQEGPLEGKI
Chain of Nuclear factor NF-kappa-B complex (Homo sapiens) (Q00653 whole entry, looked up): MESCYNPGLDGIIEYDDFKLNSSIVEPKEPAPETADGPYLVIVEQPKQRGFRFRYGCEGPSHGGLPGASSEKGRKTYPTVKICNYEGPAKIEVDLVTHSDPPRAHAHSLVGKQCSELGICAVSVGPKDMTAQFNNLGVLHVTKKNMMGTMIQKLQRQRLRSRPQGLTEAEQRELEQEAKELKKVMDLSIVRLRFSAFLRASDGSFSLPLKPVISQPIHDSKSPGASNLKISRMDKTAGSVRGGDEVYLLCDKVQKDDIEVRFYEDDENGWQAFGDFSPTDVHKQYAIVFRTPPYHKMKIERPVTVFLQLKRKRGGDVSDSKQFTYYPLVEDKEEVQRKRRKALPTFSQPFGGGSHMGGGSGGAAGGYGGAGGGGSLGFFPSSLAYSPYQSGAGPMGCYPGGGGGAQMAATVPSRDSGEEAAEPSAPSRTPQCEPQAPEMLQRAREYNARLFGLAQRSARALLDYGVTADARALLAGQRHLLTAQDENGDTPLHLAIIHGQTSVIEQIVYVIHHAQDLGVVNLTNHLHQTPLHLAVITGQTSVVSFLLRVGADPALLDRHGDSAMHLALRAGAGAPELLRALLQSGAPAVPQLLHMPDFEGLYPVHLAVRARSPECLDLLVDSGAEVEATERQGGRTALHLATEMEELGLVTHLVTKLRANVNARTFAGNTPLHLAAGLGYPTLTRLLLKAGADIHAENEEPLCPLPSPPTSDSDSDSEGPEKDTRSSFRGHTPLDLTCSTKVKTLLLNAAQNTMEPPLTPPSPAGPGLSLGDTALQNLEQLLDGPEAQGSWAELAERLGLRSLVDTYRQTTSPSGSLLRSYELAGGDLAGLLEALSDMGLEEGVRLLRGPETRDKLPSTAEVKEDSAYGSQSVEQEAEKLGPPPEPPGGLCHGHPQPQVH
Chain of Nuclear factor NF-kappa-B complex (Homo sapiens) (Q04206 whole entry, looked up): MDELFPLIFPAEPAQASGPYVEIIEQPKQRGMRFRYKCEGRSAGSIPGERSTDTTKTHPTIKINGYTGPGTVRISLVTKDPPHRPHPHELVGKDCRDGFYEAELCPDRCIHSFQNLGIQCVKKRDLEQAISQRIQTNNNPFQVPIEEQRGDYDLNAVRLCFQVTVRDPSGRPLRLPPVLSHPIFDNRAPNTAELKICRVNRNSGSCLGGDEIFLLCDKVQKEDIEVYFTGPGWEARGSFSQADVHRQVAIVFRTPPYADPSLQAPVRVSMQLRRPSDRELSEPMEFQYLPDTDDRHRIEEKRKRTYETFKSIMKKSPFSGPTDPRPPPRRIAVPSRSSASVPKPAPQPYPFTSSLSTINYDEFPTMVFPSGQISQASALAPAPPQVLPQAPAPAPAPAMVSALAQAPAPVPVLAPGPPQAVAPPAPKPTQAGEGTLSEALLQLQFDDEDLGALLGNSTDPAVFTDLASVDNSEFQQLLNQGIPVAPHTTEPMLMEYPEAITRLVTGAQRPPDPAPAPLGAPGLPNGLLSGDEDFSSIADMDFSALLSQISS
Chain of Toll-like receptor 7 (Homo sapiens) (Q9NYK1 whole entry): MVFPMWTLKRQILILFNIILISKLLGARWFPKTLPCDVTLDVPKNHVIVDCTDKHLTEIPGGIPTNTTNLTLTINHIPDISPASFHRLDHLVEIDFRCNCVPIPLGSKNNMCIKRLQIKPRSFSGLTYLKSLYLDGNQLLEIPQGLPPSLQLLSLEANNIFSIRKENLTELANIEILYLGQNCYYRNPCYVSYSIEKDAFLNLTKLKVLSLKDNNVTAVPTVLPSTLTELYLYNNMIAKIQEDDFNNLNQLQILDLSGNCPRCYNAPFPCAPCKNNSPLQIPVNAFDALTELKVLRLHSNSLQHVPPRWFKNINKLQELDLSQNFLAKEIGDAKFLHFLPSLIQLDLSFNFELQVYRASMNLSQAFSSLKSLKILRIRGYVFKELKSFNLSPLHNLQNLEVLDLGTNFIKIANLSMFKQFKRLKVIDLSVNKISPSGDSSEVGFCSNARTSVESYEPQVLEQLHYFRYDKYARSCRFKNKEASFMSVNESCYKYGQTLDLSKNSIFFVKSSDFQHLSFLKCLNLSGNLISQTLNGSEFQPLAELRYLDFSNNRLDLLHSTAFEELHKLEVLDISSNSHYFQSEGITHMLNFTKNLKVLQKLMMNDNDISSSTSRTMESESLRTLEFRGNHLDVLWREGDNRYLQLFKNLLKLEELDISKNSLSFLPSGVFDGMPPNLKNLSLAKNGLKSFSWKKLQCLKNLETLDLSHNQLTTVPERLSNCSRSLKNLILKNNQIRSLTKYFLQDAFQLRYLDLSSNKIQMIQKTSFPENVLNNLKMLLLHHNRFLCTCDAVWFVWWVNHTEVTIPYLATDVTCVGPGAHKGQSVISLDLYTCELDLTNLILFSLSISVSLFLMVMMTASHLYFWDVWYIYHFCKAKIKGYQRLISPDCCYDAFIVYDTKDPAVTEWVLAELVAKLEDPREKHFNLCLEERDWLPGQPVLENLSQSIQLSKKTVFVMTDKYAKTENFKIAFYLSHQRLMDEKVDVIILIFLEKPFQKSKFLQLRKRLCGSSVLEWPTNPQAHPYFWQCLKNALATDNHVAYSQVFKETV
Chain of Toll-like receptor 6 (Homo sapiens) (Q9Y2C9 whole entry): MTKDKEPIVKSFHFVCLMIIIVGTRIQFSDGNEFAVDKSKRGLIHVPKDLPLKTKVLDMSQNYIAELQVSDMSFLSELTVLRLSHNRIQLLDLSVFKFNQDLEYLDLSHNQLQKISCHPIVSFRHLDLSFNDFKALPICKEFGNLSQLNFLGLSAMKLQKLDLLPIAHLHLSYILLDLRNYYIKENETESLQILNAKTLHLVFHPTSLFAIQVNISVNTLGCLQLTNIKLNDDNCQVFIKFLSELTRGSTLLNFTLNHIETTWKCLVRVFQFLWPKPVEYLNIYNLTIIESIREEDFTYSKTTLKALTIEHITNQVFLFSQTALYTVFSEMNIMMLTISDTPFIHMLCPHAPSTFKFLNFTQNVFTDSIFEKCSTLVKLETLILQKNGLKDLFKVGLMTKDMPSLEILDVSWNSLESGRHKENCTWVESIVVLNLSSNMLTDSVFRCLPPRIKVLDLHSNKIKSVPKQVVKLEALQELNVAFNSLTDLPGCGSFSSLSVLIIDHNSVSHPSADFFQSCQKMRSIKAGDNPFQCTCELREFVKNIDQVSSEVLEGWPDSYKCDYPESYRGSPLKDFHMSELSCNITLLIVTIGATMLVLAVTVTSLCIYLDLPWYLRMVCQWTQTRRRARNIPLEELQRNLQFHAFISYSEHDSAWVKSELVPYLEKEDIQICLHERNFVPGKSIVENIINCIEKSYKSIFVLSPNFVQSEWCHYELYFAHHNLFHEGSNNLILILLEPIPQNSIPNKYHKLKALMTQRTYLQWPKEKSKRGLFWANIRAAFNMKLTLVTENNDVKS
Chain of Toll-like receptor 1 (Homo sapiens) (Q15399 whole entry): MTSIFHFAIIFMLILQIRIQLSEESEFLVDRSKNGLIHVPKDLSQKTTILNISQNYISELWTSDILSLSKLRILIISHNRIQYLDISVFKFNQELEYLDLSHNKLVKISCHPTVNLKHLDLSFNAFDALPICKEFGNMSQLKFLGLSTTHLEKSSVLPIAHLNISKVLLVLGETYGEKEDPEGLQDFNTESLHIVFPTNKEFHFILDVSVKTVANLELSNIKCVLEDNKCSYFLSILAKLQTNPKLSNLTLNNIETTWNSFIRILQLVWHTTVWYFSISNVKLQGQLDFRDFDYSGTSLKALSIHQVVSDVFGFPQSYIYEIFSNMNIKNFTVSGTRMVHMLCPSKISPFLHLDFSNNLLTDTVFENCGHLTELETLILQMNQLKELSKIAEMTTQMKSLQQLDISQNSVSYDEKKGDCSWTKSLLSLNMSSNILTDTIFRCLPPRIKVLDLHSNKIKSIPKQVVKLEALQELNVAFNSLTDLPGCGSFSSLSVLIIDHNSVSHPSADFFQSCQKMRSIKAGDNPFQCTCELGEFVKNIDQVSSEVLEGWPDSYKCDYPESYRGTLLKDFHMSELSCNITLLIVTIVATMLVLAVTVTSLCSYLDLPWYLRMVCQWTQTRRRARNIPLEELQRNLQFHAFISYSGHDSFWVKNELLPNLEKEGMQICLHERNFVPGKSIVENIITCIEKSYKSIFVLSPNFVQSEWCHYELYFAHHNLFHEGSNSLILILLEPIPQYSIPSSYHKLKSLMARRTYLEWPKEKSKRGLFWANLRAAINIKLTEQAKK

CC(C)OC(=O)c1c(NC(=S)Nc2ccc(F)c3ccccc23)sc2c1CCC2
Activity [1]: Active
Activity [2]: Active
half-life at 250 µM [3]: 1.5 h
Activity [4]: inactive
Activity [5]: Dose-Dependent Effect
Ratio CC50/EC50 [6]: >3200
fold change (FC) [7]: 2
Activity [8]: Dose-Dependent Effect
Activity [9]: inactive
Activity [10]: inactive
Activity [11]: inactive
Activity [12]: 25.85%
Activity [13]: Active
Activity [14]: inactive
fold change (FC) [15]: 7
Activity [16]: inactive
Activity [17]: Active
Activity [18]: inactive
Activity [19]: Non-Toxic
Activity [20]: 25%
